According to patent US11542235B2, “Herbicidal 3-azaspiro[5.5] undecane-8, 10-dione compounds” (SYNGENTA PARTICIPATIONS AG, priority 2018, dated 2023):

Tests used:
Type in all cases: in vivo
[1] = system: Lolium perenne (LOLPE); test: Glasshouse herbicidal test, pre- and post-emergence, Lolium perenne; settings: 250 g/h, evaluated after 13 days, five point scale; for percentage damage caused to the plant, LOLPE POST: post-emergence; for percentage damage caused to the plant, LOLPE PRE: pre-emergence
Procedure: (§1) Seeds of a variety of test species are sown in standard soil in pots (Lolium perenne (LOLPE), Setaria faberi (SETFA), Alopecurus myosuroides (ALOMY), Echinochloa crus-galli (ECHCG), Avena fatua (AVEFA)). After cultivation for one day (pre-emergence) or after 8 days cultivation (post-emergence) under controlled conditions in a glasshouse (at 24/16° C., day/night; 14 hours light; 65% humidity), the plants are sprayed with an aqueous spray solution derived from the formulation of the technical active ingredient in acetone/water (50:50) solution containing 0.5% Tween 20 (polyoxyethelyene sorbitan monolaurate, CAS RN 9005-64-5). Compounds are applied at […]. The test plants are then grown in a glasshouse under controlled conditions in a glasshouse (at 24/16° C., day/night; 14 hours light; 65% humidity) and watered twice daily. After 13 days for pre and post-emergence, the test is evaluated for the percentage damage caused to the plant. The biological activities are shown in the following table on a five point scale (5=80-100%; 4=60-79%; 3=40-59%; 2=20-39%; 1=0-19%).

[2] = system: Alopecurus myosuroides (ALOMY); test: Glasshouse herbicidal test, pre- and post-emergence, Alopecurus myosuroides; settings: 250 g/h, evaluated after 13 days, five point scale; for percentage damage caused to the plant, ALOMY POST: post-emergence; for percentage damage caused to the plant, ALOMY PRE: pre-emergence
Procedure: as §1

[3] = system: Avena fatua (AVEFA); test: Glasshouse herbicidal test, pre- and post-emergence, Avena fatua; settings: 250 g/h, evaluated after 13 days, five point scale; for percentage damage caused to the plant, AVEFA POST: post-emergence; for percentage damage caused to the plant, AVEFA PRE: pre-emergence
Procedure: as §1

[4] = system: Echinochloa crus-galli (ECHCG); test: Glasshouse herbicidal test, pre- and post-emergence, Echinochloa crus-galli; settings: 250 g/h, evaluated after 13 days, five point scale; for percentage damage caused to the plant, ECHCG POST: post-emergence; for percentage damage caused to the plant, ECHCG PRE: pre-emergence
Procedure: as §1

[5] = system: Setaria faberi (SETFA); test: Glasshouse herbicidal test, pre- and post-emergence, Setaria faberi; settings: 250 g/h, evaluated after 13 days, five point scale; for percentage damage caused to the plant, SETFA POST: post-emergence; for percentage damage caused to the plant, SETFA PRE: pre-emergence
Procedure: as §1

CC#Cc1cc(C)c(C2C(=O)CC3(CCN(C(=O)C(C)(F)F)CC3)CC2=O)c(C)c1 [Compound A22]
5 (5=80-100%): percentage damage caused to the plant, LOLPE POST [1] | percentage damage caused to the plant, LOLPE PRE [1] | percentage damage caused to the plant, ALOMY POST [2] | percentage damage caused to the plant, ALOMY PRE [2] | percentage damage caused to the plant, AVEFA POST [3] | percentage damage caused to the plant, AVEFA PRE [3] | percentage damage caused to the plant, ECHCG POST [4] | percentage damage caused to the plant, ECHCG PRE [4] | percentage damage caused to the plant, SETFA POST [5] | percentage damage caused to the plant, SETFA PRE [5]

CC#Cc1cc(C)c(C2C(=O)CC3(CCN(C(=O)C(C)(C)F)CC3)CC2=O)c(C)c1 [Compound A23]
5 (5=80-100%): percentage damage caused to the plant, LOLPE POST [1] | percentage damage caused to the plant, LOLPE PRE [1] | percentage damage caused to the plant, ALOMY POST [2] | percentage damage caused to the plant, ALOMY PRE [2] | percentage damage caused to the plant, AVEFA POST [3] | percentage damage caused to the plant, AVEFA PRE [3] | percentage damage caused to the plant, ECHCG POST [4] | percentage damage caused to the plant, ECHCG PRE [4] | percentage damage caused to the plant, SETFA POST [5] | percentage damage caused to the plant, SETFA PRE [5]

CC#Cc1cc(C)c(C2C(=O)CC3(CCN(C(=O)C(C)C(F)(F)F)CC3)CC2=O)c(C)c1 (stereo not shown) [Compound A24]
5 (5=80-100%): percentage damage caused to the plant, LOLPE POST [1] | percentage damage caused to the plant, LOLPE PRE [1] | percentage damage caused to the plant, ALOMY POST [2] | percentage damage caused to the plant, ALOMY PRE [2] | percentage damage caused to the plant, AVEFA POST [3] | percentage damage caused to the plant, AVEFA PRE [3] | percentage damage caused to the plant, ECHCG POST [4] | percentage damage caused to the plant, ECHCG PRE [4] | percentage damage caused to the plant, SETFA POST [5] | percentage damage caused to the plant, SETFA PRE [5]

CC#Cc1cc(C)c(C2C(=O)CC3(CCN(C(=O)CC(F)(F)F)CC3)CC2=O)c(C)c1 [Compound A25]
5 (5=80-100%): percentage damage caused to the plant, LOLPE POST [1] | percentage damage caused to the plant, LOLPE PRE [1] | percentage damage caused to the plant, ALOMY POST [2] | percentage damage caused to the plant, ALOMY PRE [2] | percentage damage caused to the plant, AVEFA POST [3] | percentage damage caused to the plant, AVEFA PRE [3] | percentage damage caused to the plant, ECHCG POST [4] | percentage damage caused to the plant, ECHCG PRE [4] | percentage damage caused to the plant, SETFA POST [5] | percentage damage caused to the plant, SETFA PRE [5]

CC#Cc1cc(C)c(C2C(=O)CC3(CCN(C(=O)C(F)(F)C(F)(F)F)CC3)CC2=O)c(C)c1 [Compound A26]
5 (5=80-100%): percentage damage caused to the plant, LOLPE POST [1] | percentage damage caused to the plant, LOLPE PRE [1] | percentage damage caused to the plant, ALOMY POST [2] | percentage damage caused to the plant, ALOMY PRE [2] | percentage damage caused to the plant, AVEFA POST [3] | percentage damage caused to the plant, AVEFA PRE [3] | percentage damage caused to the plant, ECHCG POST [4] | percentage damage caused to the plant, ECHCG PRE [4] | percentage damage caused to the plant, SETFA POST [5] | percentage damage caused to the plant, SETFA PRE [5]

CC#Cc1cc(C)c(C2C(=O)CC3(CCN(C(=O)C(C)(Cl)Cl)CC3)CC2=O)c(C)c1 [Compound A27]
5 (5=80-100%): percentage damage caused to the plant, LOLPE POST [1] | percentage damage caused to the plant, LOLPE PRE [1] | percentage damage caused to the plant, ALOMY POST [2] | percentage damage caused to the plant, ALOMY PRE [2] | percentage damage caused to the plant, AVEFA POST [3] | percentage damage caused to the plant, AVEFA PRE [3] | percentage damage caused to the plant, ECHCG POST [4] | percentage damage caused to the plant, ECHCG PRE [4] | percentage damage caused to the plant, SETFA POST [5] | percentage damage caused to the plant, SETFA PRE [5]

CC#Cc1cc(C)c(C2C(=O)CC3(CCN(C(=O)C(Cl)Cl)CC3)CC2=O)c(C)c1 [Compound A28]
5 (5=80-100%): percentage damage caused to the plant, LOLPE POST [1] | percentage damage caused to the plant, LOLPE PRE [1] | percentage damage caused to the plant, ALOMY POST [2] | percentage damage caused to the plant, ALOMY PRE [2] | percentage damage caused to the plant, AVEFA POST [3] | percentage damage caused to the plant, AVEFA PRE [3] | percentage damage caused to the plant, ECHCG POST [4] | percentage damage caused to the plant, ECHCG PRE [4] | percentage damage caused to the plant, SETFA POST [5] | percentage damage caused to the plant, SETFA PRE [5]

CC#Cc1cc(C)c(C2C(=O)CC3(CCN(C(=O)C(F)(F)C(F)F)CC3)CC2=O)c(C)c1 [Compound A29]
5 (5=80-100%): percentage damage caused to the plant, LOLPE POST [1] | percentage damage caused to the plant, LOLPE PRE [1] | percentage damage caused to the plant, ALOMY POST [2] | percentage damage caused to the plant, ALOMY PRE [2] | percentage damage caused to the plant, AVEFA POST [3] | percentage damage caused to the plant, AVEFA PRE [3] | percentage damage caused to the plant, ECHCG POST [4] | percentage damage caused to the plant, ECHCG PRE [4] | percentage damage caused to the plant, SETFA POST [5] | percentage damage caused to the plant, SETFA PRE [5]

CC#Cc1cc(C)c(C2=C(OC(=O)C(C)(C)C)CC3(CCN(OC)CC3)CC2=O)c(C)c1 [Compound P1]
5 (5=80-100%): percentage damage caused to the plant, LOLPE POST [1] | percentage damage caused to the plant, LOLPE PRE [1] | percentage damage caused to the plant, ALOMY POST [2] | percentage damage caused to the plant, ALOMY PRE [2] | percentage damage caused to the plant, AVEFA POST [3] | percentage damage caused to the plant, AVEFA PRE [3] | percentage damage caused to the plant, ECHCG POST [4] | percentage damage caused to the plant, ECHCG PRE [4] | percentage damage caused to the plant, SETFA POST [5] | percentage damage caused to the plant, SETFA PRE [5]

CC#Cc1cc(C)c(C2=C(OC(C)=O)CC3(CCN(OC)CC3)CC2=O)c(C)c1 [Compound P2]
5 (5=80-100%): percentage damage caused to the plant, LOLPE POST [1] | percentage damage caused to the plant, LOLPE PRE [1] | percentage damage caused to the plant, ALOMY POST [2] | percentage damage caused to the plant, ALOMY PRE [2] | percentage damage caused to the plant, AVEFA POST [3] | percentage damage caused to the plant, AVEFA PRE [3] | percentage damage caused to the plant, ECHCG POST [4] | percentage damage caused to the plant, ECHCG PRE [4] | percentage damage caused to the plant, SETFA POST [5] | percentage damage caused to the plant, SETFA PRE [5]

CC#Cc1cc(C)c(C2=C(OC(=O)OC)CC3(CCN(OC)CC3)CC2=O)c(C)c1 [Compound P3]
5 (5=80-100%): percentage damage caused to the plant, LOLPE POST [1] | percentage damage caused to the plant, LOLPE PRE [1] | percentage damage caused to the plant, ALOMY POST [2] | percentage damage caused to the plant, ALOMY PRE [2] | percentage damage caused to the plant, AVEFA POST [3] | percentage damage caused to the plant, AVEFA PRE [3] | percentage damage caused to the plant, ECHCG POST [4] | percentage damage caused to the plant, ECHCG PRE [4] | percentage damage caused to the plant, SETFA POST [5] | percentage damage caused to the plant, SETFA PRE [5]

CC#Cc1cc(C)c(C2=C(OC(C)=O)CC3(CCN(C(C)=O)CC3)CC2=O)c(C)c1 [Compound P4, [3-acetyl-9-(2,6-dimethyl-4-prop-1-ynyl-phenyl)-10-oxo-3-azaspiro[5.5]undec-8-en-8-yl] acetate]
5 (5=80-100%): percentage damage caused to the plant, LOLPE POST [1] | percentage damage caused to the plant, LOLPE PRE [1] | percentage damage caused to the plant, ALOMY POST [2] | percentage damage caused to the plant, ALOMY PRE [2] | percentage damage caused to the plant, AVEFA POST [3] | percentage damage caused to the plant, AVEFA PRE [3] | percentage damage caused to the plant, ECHCG POST [4] | percentage damage caused to the plant, ECHCG PRE [4] | percentage damage caused to the plant, SETFA PRE [5]

CC#Cc1cc(C)c(C2=C(OC(=O)OC)CC3(CCN(C(C)=O)CC3)CC2=O)c(C)c1 [Compound P5]
5 (5=80-100%): percentage damage caused to the plant, LOLPE POST [1] | percentage damage caused to the plant, LOLPE PRE [1] | percentage damage caused to the plant, ALOMY POST [2] | percentage damage caused to the plant, ALOMY PRE [2] | percentage damage caused to the plant, AVEFA POST [3] | percentage damage caused to the plant, AVEFA PRE [3] | percentage damage caused to the plant, ECHCG POST [4] | percentage damage caused to the plant, ECHCG PRE [4] | percentage damage caused to the plant, SETFA POST [5] | percentage damage caused to the plant, SETFA PRE [5]

CC#Cc1cc(C)c(C2=C(OC(=O)C(C)C)CC3(CCN(C(=O)C(C)C)CC3)CC2=O)c(C)c1 [Compound P7]
5 (5=80-100%): percentage damage caused to the plant, LOLPE POST [1] | percentage damage caused to the plant, LOLPE PRE [1] | percentage damage caused to the plant, ALOMY POST [2] | percentage damage caused to the plant, ALOMY PRE [2] | percentage damage caused to the plant, AVEFA POST [3] | percentage damage caused to the plant, AVEFA PRE [3] | percentage damage caused to the plant, ECHCG POST [4] | percentage damage caused to the plant, ECHCG PRE [4] | percentage damage caused to the plant, SETFA POST [5] | percentage damage caused to the plant, SETFA PRE [5]
